Results taken from publication PMC8453635, “Piperidine Azasugars Bearing Lipophilic Chains: Stereoselective Synthesis and Biological Activity as Inhibitors of Glucocerebrosidase (GCase)” (The Journal of Organic Chemistry, 2021).

How the values were obtained:
α-fucosidase = molecular target: T1, α-fucosidase (Homo sapiens, UniProt P04066); assay: Human lysosomal glycosidase selectivity screening (leukocyte homogenate); format: biochemical; conditions: 1 mM, read-out: percentage of inhibition, α-Fuco
T1 construct: from leukocytes isolated from healthy donors (controls); from tissue; host or cells: leukocytes from healthy donors, sonicated homogenate
T1 sequence (P04066 32-466): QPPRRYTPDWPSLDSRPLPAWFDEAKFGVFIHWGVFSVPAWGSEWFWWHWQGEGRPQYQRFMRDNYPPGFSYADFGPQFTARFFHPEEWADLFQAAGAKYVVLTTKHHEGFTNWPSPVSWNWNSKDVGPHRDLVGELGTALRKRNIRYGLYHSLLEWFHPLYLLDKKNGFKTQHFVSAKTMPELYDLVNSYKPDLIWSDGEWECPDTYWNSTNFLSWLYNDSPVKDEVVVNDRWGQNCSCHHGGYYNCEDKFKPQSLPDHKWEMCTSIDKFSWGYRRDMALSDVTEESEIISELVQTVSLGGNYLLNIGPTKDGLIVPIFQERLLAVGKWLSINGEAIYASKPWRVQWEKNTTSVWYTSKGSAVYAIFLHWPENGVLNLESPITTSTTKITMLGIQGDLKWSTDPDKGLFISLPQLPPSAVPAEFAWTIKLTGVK
Description: (§1) In order to avoid undesired inhibitory side effects of a potential new drug, it has to be selective for a given target. The selectivity of the newly synthesized compounds 14, 15, and 33·HCl toward GCase was then investigated, evaluating their inhibition at 1 mM concentration toward six other lysosomal glycosidases (namely, α-and β-mannosidases, α- and β-galactosidases, α-fucosidase, and α-glucosidase) in cell homogenates (leucocytes or lymphocytes) isolated from healthy donors. […] Indeed, only moderate inhibitory activity (ca. 50%) was found toward human β-galactosidase for both piperidines 14 and 15, while negligible inhibitory activity was detected in all other cases.
The effect of 1 mM concentration of 14, 15, and 33·HCl was assayed toward six lysosomal glycosidases other than GCase, namely, α-mannosidase, β-mannosidase, α-galactosidase, β-galactosidase, α-fucosidase from leukocytes isolated from healthy donors (controls) and α-glucosidase from lymphocytes isolated from healthy donors’ flesh blood (controls). Isolated leukocytes or lymphocytes were disrupted by sonication, and a micro BCA protein assay kit (Sigma-Aldrich) was used to determine the total protein amount for the enzymatic assay, according to the manufacturer’s instructions (for more details, see the Supporting Information section). […]
α-Fucosidase activity was measured in a flat -bottomed 96 -well plate. […] The reaction was stopped by addition of sodium carbonate (200 μL; 0.5M, pH 10.7) containing Triton X -100 (0.0 025 %), and the fluorescence 4 -methylumbelliferone released by α- fucosidase activity was measured in SpectraMax M2 microplate reader ( λex=365 nm, λem=435 nm; Molecular Devices). […]
(§2) α-Glucosidase activity was measured in a flat –bottomed 96 well plate. […] The reaction was stopped by the addition of a solution of sodium carbonate (200 µL; 0.5M, pH 10.7) containing Triton X -100 (0.0025 %), and the fluorescence of 4 -methylumbelliferone released by α-glucosidase activity was measured in […]
(§3) Figure S 48. […] The corresponding calculated percentage of inhibition is indicated above each bar.

α-galactosidase = molecular target: T2, α-galactosidase (Homo sapiens, UniProt P06280); assay: as above; format: biochemical; conditions: 1 mM, read-out: percentage of inhibition, α-Gal
T2 construct: from leukocytes isolated from healthy donors (controls); from tissue; host or cells: leukocytes from healthy donors, sonicated homogenate
T2 sequence (P06280 32-429): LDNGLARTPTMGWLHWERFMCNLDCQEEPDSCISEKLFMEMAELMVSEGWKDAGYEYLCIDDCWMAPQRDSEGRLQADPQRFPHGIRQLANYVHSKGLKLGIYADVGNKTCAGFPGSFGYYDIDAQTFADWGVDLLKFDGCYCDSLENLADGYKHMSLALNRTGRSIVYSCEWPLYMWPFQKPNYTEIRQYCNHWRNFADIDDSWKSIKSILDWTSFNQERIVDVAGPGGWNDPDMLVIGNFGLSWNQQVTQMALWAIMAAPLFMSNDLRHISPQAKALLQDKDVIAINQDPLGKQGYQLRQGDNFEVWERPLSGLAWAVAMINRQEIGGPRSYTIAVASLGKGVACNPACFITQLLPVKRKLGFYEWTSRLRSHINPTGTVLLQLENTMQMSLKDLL
Description: as §1
The effect of 1 mM concentration of 14, 15, and 33·HCl was assayed toward six lysosomal glycosidases other than GCase, namely, α-mannosidase, β-mannosidase, α-galactosidase, β-galactosidase, α-fucosidase from leukocytes isolated from healthy donors (controls) and α-glucosidase from lymphocytes isolated from healthy donors’ flesh blood (controls). […]
μL, Sigma –Aldrich) in acetate buffer (0.1 M, pH 4.5) containing sodium azide (0.02%) were incubated at 37 °C for 1 h. Th e reaction was stopped by addition of sodium carbonate (200 μL; 0.5M, pH 10.7) containing Triton X -100 (0.0025 %), and the fluorescence 4 -methylumbelliferone released by α-galactosidase activity was measured in SpectraMax M2 microplate reader ( λex=365 nm, λem=435 nm; Molecular Devices). […]
α-Fucosidase activity was measured in a flat -bottomed 96 -well plate. […]
as §2, §3

Row | Compound | inhibition at 1000 µM (α-fucosidase) [%] | inhibition at 1000 µM (α-galactosidase) [%]
1 | CCCCCCCC[C@H]1[C@@H](O)[C@H](O)[C@H](O)CN1CCCCCCCC [compound 14, (2S,3R,4R,5R)-1,2-Dioctylpiperidine-3,4,5-triol] | 25 | 9
2 | CCCCCCCC[C@@H]1[C@@H](O)[C@H](O)[C@H](O)CN1CCCCCCCC [compound 15, (2R,3R,4R,5R)-1,2-Dioctylpiperidine-3,4,5-triol] | 24 | 8
3 | CCCCCCCC[C@@H]1[C@@H](O)[C@H](O)[C@H](O)CN1C(CCCCCCC)CCCCCCC.Cl [compound 33·HCl, (2R,3R,4R,5R)-2-Octyl-1-(pentadecan-8-yl)-piperidine-3,4,5-triol Hydrochloride] | 5 | 1
